Test results published in patent US5464617A, “β-lactam compounds” (Hoffmann-La Roche Inc., priority 1994, dated 1995).
In brackets after ≈: the same amount, converted by molar mass. Structures can show the parent of a compound that is named as a salt.

Tests used:
[1] = test system: Citrobacter freundii 1982; assay: MIC in vitro of a 1:4 combination of ceftriaxone with a compound of formula I (Test D); type: cell-based; details: for MIC C. freundii 1982 (D): test D; for MIC C. freundii 1982: Table 2
Experimental: The minimum inhibitory concentration in vitro ([…]) of a 1:4 combination of ceftriaxone with a compound of formula I against Citrobacter freundii 1982 was measured and compiled in Table 2 hereinafter.

[2] = test system: E. coli 1346; assay: Antibacterial activity of the products per se, serial dilution method in liquid medium (Test E); type: cell-based; details: product per se; for MIC E. coli 1346 (E): test E; for MIC E. coli 1346: Table 3, liquid medium
Source text: The antibacterial activity of the products per se is illustrated on the basis of Table 3 hereinafter, the minimum inhibitory concentration […] in vitro against E. coli 1346 being determined using the serial dilution method in liquid medium: […]

[3] = Table 4, 1:4 combination of ceftriaxone with the compound
[4] = 1:4 combination of ceftriaxone with the compound

MIC C. freundii 1982 (D) [1, 3]	MIC E. coli 1346 (E) ([2]; Table 4)	SMILES	further results
2 mg/L	> 32 mg/L	CC(=O)N1C[C@H]2CC(COC(N)=O)=C(C(=O)O)N3C(=O)[C@@H]1[C@@H]23 [58(a), (1aS,3aR,6bR)-2-Acetyl-5-carbamoyloxymethyl-1-oxo-1a,2,3,3a,4,6b-hexahydro-1H-2,6a-diazacyclobut[cd]indene-6-carboxylic acid sodium salt]	
0.5 mg/L	8 mg/L (≈ 22.4 µM)	Cc1nnc(SCC2=C(C(=O)O)N3C(=O)[C@H]4NC[C@@H](S2)[C@H]43)s1 [40(h), (1aS,3aR,6bS)-5-[5-Methyl-1,3,4-thiadiazol-2-ylsulphanylmethyl]-1-oxo-4-thia-1,1a,2,3,3a,6b-hexahydro-2,6a-diazacyclobut[cd]indene-6-carboxylic acid]	
0.5 mg/L	16 mg/L	Cn1nnnc1SCC1=C(C(=O)O)N2C(=O)[C@@H]3[C@H]2[C@H](C1)CN3C(=O)NCc1ccc(O)cc1 [18(h), (1aS,3aR,6bR)-2-(4-Hydroxy-benzylcarbamoyl)-5-(1-methyl-1H-tetrazol-5-ylsulphanylmethyl)-1-oxo-1a,2,3,3a,4,6b-hexahydro-1H-2,6a-diazacyclobut[cd]indene-6-carboxylic acid sodium salt]	
2 mg/L	> 32 mg/L	CO/N=C(\C(=O)N1C[C@H]2CC(COC(N)=O)=C(C(=O)O)N3C(=O)[C@@H]1[C@@H]23)c1csc(N)n1 [Example 60, (Z)-(1aS,3aR,6bR)-2-[(2-Amino-thiazol-4-yl)-methoxyimino-acetyl]-5-carbamoyloxymethyl-1-oxo-1a,2,3,3a,4,6b-hexahydro-1H-2,6a-diazacyclobut[cd]indene-6-carboxylic acid]	
2 mg/L	4 mg/L	CC(=O)N1C[C@H]2CC(COC(=O)NCC(F)(F)F)=C(C(=O)O)N3C(=O)[C@@H]1[C@@H]23 [92(a), (1aS,3aR,6bR)-2-Acetyl-1-oxo-5-(2,2,2-trifluoroethylcarbamoyloxymethyl)-1a,2,3,3a,4,6b-hexahydro-1H-2,6a-diazacyclobut[cd]indene-6-carboxylic acid sodium salt]	
4 mg/L	8 mg/L	CC(=O)N1C[C@H]2CC(Sc3nnc(C)s3)=C(C(=O)O)N3C(=O)[C@@H]1[C@@H]23 [3(ac), (1aS,3aR,6bR)-2-Acetyl-5-(5-methyl-1,3,4-thiadiazol-2-ylsulphanyl)-1-oxo-1a,2,3,3a,4,6b-hexahydro-1H-2,6a-diazacyclobut[cd]indene-6-carboxylic acid sodium salt]	
4 mg/L	8 mg/L	C=CC1=C(C(=O)O)N2C(=O)[C@@H]3[C@H]2[C@H](C1)CN3C(C)=O [Example 47, (1aS,3aR, 6bR)-2-Acetyl-1-oxo-5-vinyl-1a,2,3,3a,4,6b-hexahydro-1H-2,6a-diazacyclobut[cd]indene-6-carboxylic acid sodium salt]	
		COc1cc(CNC(=O)N2C[C@H]3CC(Sc4nnnn4C)=C(C(=O)O)N4C(=O)[C@@H]2[C@@H]34)on1 [3(h), (1aS,3aR,6bR)-2-(3-Methoxy-isoxazol-5-ylmethylcarbamoyl)-5-(1-methyl-1H-tetrazol-5-ylsulphanyl)-1-oxo-1a,2,3,3a,4,6b-hexahydro-1H-2,6a-diazacyclobut[cd]indene-6-carboxylic acid sodium salt]	MIC C. freundii 1982 [1, 4]: 2 mg/L; MIC E. coli 1346 [2]: 16 mg/L
2 mg/L	0.5 mg/L	CC(=O)N1C[C@H]2SC(CSc3ccncc3)=C(C(=O)O)N3C(=O)[C@@H]1[C@@H]23 [42(b), (1aS,3aR,6bS)-2-Acetyl-1-oxo-5-(pyridin-4-ylsulphanylmethyl)-4-thia-1,1a,2,3,3a,6b-hexahydro-2,6a-diazacyclobut[cd]indene-6-carboxylic acid sodium salt]	
4 mg/L	32 mg/L	O=C(O)C1=C(CSc2ccncc2)C[C@@H]2CN(C(=O)NCc3ccc(O)cc3)[C@@H]3C(=O)N1[C@H]23 [18(i), (1aS,3aR,6bR)-2-(4-Hydroxy-benzylcarbamoyl)-1-oxo-5-(pyridin-4-ylsulphanylmethyl)-1a,2,3,3a,4,6b-hexahydro-1H-2,6a-diazacyclobut[cd]indene-6-carboxylic add sodium salt]	
1 mg/L	2 mg/L	CNC(=O)OCC1=C(C(=O)O)N2C(=O)[C@@H]3[C@H]2[C@H](C1)CN3C(=O)C(F)(F)F [98(b), (1aS,3aR,6bR)-5-Methylcarbamoyloxymethyl-1-oxo-2-trifluoroacetyl-1a,2,3,3a,4,6b-hexahydro-1H-2,6a-diazacyclobut[cd]indene-6-carboxylic acid sodium salt]	
1 mg/L	0.5 mg/L	CC(=O)N1C[C@H]2CC(CSc3nnc(C)s3)=C(C(=O)O)N3C(=O)[C@@H]1[C@@H]23 [65(a), (1aS,3aR,6bR)-2-Acetyl-5-(5-methyl-1,3,4-thiadiazol-2-ylsulphanylmethyl)-1-oxo-1a,2,3,3a,4,6b-hexahydro-1H-2,6a-diazacyclobut[cd]indene-6-carboxylic acid sodium salt]	
2 mg/L	8 mg/L (≈ 22.5 µM)	Cn1c(O)nnc1SCC1=C(C(=O)O)N2C(=O)[C@H]3NC[C@@H](S1)[C@H]32 [40(d), (1aS,3aR,6bS)-5-(5-Hydroxy-4-methyl-4H-[1,2,4]-triazol-3-ylsulphanylmethyl)-1-oxo-4-thia-1,1a,2,3,3a,6b-hexahydro-2,6a-diazacyclobut[cd]indene-6-carboxylic acid]	
1 mg/L	32 mg/L	NC(=O)CSC1=C(C(=O)O)N2C(=O)[C@@H]3[C@H]2[C@H](C1)CN3C(=O)Nc1ccc(O)cc1 [3(p), (1aS,3aR,6bR)-5-Carbamoylmethylsulphanyl-2-(4-hydroxyphenylcarbamoyl)-1-oxo-5-(pyridin-4-ylsulphanyl)-1a,2,3,3a,4,6b-hexahydro-1H-2,6a-diazacyclobut[cd]indene-6-carboxylic acid sodium salt]	
0.25 mg/L	> 32 mg/L	NC(=O)OCC1=C(C(=O)O)N2C(=O)[C@@H]3[C@H]2[C@H](C1)CN3C(=O)NCc1ccccc1 [Example 27(c), (1aS,3aR,6bR)-2-Benzylcarbamoyl-5-carbamoyloxymethyl-1-oxo-1a,2,3,3a,4,6b-hexahydro-1H-2,6a-diazacyclobut[cd]indene-6-carboxylic acid sodium salt]	
		Nc1nnc(SC2=C(C(=O)O)N3C(=O)[C@@H]4[C@H]3[C@H](C2)CN4C(=O)Nc2ccc(O)cc2)s1 [3(l), (1aS,3aR,6bR)-5-(5-Amino-1,3,4-thiadiazol-2-ylsulphanyl)-2-(4-hydroxyphenylcarbamoyl)-1-oxo-1a,2,3,3a,4,6b-hexahydro-1H-2,6a-diazacyclobut[cd]indene-6-carboxylic acid sodium salt]	MIC C. freundii 1982 [1, 4]: 0.5 mg/L; MIC C. freundii 1982 (D) ([1]; Table 5, particularly preferred products, 1:4 combination with ceftriaxone): 0.5 mg/L; MIC E. coli 1346 [2]: 8 mg/L; MIC E. coli 1346 (E) ([2]; Table 5, particularly preferred products): 8 mg/L
2 mg/L	8 mg/L	Cc1nnc(SCC2=C(C(=O)O)N3C(=O)[C@H]4NC[C@@H](C2)[C@H]43)s1 [Example 63, (1aS,3aR,6bR)-5-(5-Methyl-1,3,4-thiadiazol-2-ylsulphanylmethyl)-1-oxo-1a,2,3,3a,4,6b-hexahydro-1H-2,6a-diazacyclobut[cd]indene-6-carboxylic acid trifluoroacetate]	
2 mg/L	1 mg/L	CN1CCN(C(=O)OCC2=C(C(=O)O)N3C(=O)[C@H]4NC[C@@H](C2)[C@H]43)CC1 [Example 103, (1aS,3aR,6bR)-5-(4-Methyl-piperazin-1-ylcarbonyloxymethyl)-1-oxo-1a,2,3,3a,4,6b-hexahydro-1H-2,6a-diazacydobut[cd]indene-6-carboxylic acid trifluoroacetate]	
1 mg/L	2 mg/L	Cc1nnc(SCC2=C(C(=O)O)N3C(=O)[C@@H]4[C@H]3[C@H](C2)CN4C(=O)C(F)(F)F)s1 [65(b), (1aS,3aR,6bR)-5-(S-Methyl-1,3,4-thiadiazol-2-ylsulphanylmethyl)-1-oxo-2-trifluoroacetyl-1a,2,3,3a,4,6b-hexahydro-1H-2,6a-diazacyclobut[cd]indene-6-carboxylic acid sodium salt]	
0.5 mg/L	> 32 mg/L	Cn1nnnc1SCC1=C(C(=O)O)N2C(=O)[C@@H]3[C@H]2[C@@H](CN3C(=O)Nc2ccc(O)cc2)S1 [41(d), (1aS,3aR,6bS)-2-(4-Hydroxy-phenylcarbamoyl)-5-(1-methyl-1H-tetrazol-5-ylsulphanylmethyl)-1-oxo-4-thia-1,1a,2,3,3a,6b-hexahydro-2,6a-diazacyclobut[cd]indene-6-carboxylic acid sodium salt]	
1 mg/L	4 mg/L (≈ 9.79 µM)	C=CCOC(=O)N1C[C@H]2OC(CSc3nnnn3C)=C(C(=O)O)N3C(=O)[C@@H]1[C@@H]23 [29(e) Byproduct]	
		CS(=O)(=O)OC1=C(C(=O)O)N2C(=O)[C@@H]3[C@H]2[C@H](C1)CN3C(=O)NCc1ccc(O)c(O)c1 [9(d), (1aS,3aR,6bR)-2-(3,4-Dihydroxy-benzylcarbamoyl)-5-methylsulphonyloxy-1-oxo-1a,2,3,3a,4,6b-hexahydro-1H-2,6a-diazacyclobut[cd]indene-6-carboxylic acid sodium salt]	MIC C. freundii 1982 [1, 4]: 2 mg/L; MIC E. coli 1346 [2]: 32 mg/L

SMILES	MIC C. freundii 1982 (D) [1, 3]	MIC E. coli 1346 (E) ([2]; Table 4)	further results
N#C/C=C/C1=C(C(=O)O)N2C(=O)[C@H]3NC[C@@H](C1)[C@H]32 [48(b), (E)-(1aS,3aR,6bR)-5-(2-Cyanovinyl)-1-oxo-1a,2,3,3a,4,6b-hexahydro-1H-2,6a-diazacyclobut[cd]indene-6-carboxylic acid trifluoroacetate]	2 mg/L	4 mg/L	
